Measurements reported in patent US5708034A, “Substituted sulfonimidamides, processes for their preparation, their use as a medicament or diagnostic, and medicament comprising them” (Hoechst Aktiengesellschaft, priority 1995, dated 1998).
Where a name gives a salt, the structure may show the parent alone.

Target: T1, Na^+ /H^+ exchanger of rabbit erythrocytes (Oryctolagus cuniculus, UniProt P23791)
T1 construct: determine the Na^+ influx into the erythrocytes via Na^+ /H^+ exchange by flame photometry; endogenous in cells; host or cells: erythrocytes from ear-artery blood of cholesterol-fed White New Zealand rabbits (animals from Ivanovas)
Assay: Inhibition of the Na^+ /H^+ exchanger of rabbit erythrocytes (amiloride-sensitive Na^+ influx, flame photometry)
Type: cell-based, rabbit (White New Zealand)
Details: hyperosmolar salt-sucrose medium, pH 7.4, 37° C., sodium influx by flame photometry
Text: Inhibition of the Na^+ /H^+ exchanger of rabbit erythrocytes
White New Zealand rabbits (Ivanovas) received a standard diet with 2% cholesterol for six weeks in order to activate Na^+ /H^+ exchange and thus to be able to determine the Na^+ influx into the erythrocytes via Na^+ /H^+ exchange by flame photometry. The blood was taken from the ear arteries and rendered incoagulable by means of 25 IU of potassium heparin. A part of each sample was used for the duplicate determination of the hematocrit by centrifugation. Aliquots of 100 μl in each case were used to measure the Na^+ starting content of the erythrocytes.
In order to determine the amiloride-sensitive sodium influx, 100 μl of each blood sample were incubated in each case in 5 ml of a hyperosmolar salt-sucrose medium (mmol/l: 140 NaCl, 3 KCl, 150 sucrose, 0.1 ouabain, 20 tris-hydroxymethylaminomethane) at pH 7.4 and 37° C. The erythrocytes were then washed three times with ice-cold MgCl2 ouabain solution (mmol/l: 112 MgCl2, 0.1 ouabain) and hemolyzed in 2.0 ml of distilled water. The intracellular sodium content was determined by flame photometry.
The net Na^+ influx was calculated from the difference between sodium starting values and the sodium content of the erythrocytes after incubation. The amiloride-inhibitable sodium influx resulted from the difference between the sodium content of the erythrocytes after incubation with and without amiloride 3×10^-4 mol/l. This procedure was also used in the case of the compounds according to the invention.

T1 sequence (P23791 whole entry): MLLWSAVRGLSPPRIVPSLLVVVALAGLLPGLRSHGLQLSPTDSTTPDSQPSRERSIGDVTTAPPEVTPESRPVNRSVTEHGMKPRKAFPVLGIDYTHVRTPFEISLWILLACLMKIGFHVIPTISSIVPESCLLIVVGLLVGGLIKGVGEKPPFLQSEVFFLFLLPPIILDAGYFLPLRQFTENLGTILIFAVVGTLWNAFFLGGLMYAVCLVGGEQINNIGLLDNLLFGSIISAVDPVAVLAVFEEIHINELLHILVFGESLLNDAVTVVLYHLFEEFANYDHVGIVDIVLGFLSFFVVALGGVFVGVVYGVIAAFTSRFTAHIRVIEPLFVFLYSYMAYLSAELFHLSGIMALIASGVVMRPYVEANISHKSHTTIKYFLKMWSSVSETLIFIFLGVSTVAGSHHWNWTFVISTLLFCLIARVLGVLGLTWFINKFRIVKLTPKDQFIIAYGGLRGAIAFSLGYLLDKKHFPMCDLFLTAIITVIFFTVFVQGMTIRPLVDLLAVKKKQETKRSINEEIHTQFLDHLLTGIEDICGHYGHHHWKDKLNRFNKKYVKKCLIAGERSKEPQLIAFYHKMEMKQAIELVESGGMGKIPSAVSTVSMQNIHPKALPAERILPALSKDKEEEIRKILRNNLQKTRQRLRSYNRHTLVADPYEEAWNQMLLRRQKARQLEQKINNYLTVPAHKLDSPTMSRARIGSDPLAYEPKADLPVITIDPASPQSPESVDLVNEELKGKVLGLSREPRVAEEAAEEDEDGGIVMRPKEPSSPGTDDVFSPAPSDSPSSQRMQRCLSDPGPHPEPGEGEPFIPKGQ

SMILES	IC50
CCN=S(=O)(c1ccc(F)cc1)N(CC)c1ccc(C(=O)N=C(N)N)cc1S(C)(=O)=O (stereo not shown) [Example 1, 4-(4-Fluorobenzene-N,N'-diethylsulfimidamoyl)-3-methyl-sulfonylbenzoylguanidine, dihydrochloride]	680 µM
CCN=S(=O)(c1ccc(F)cc1)N(CC)c1ccc(C(=O)N=C(N)N)cc1C(F)(F)F (stereo not shown) [Example 2, 4-(4-Fluorobenzene-N,N'-diethylsulfimidamoyl)-3-trifluoro-methylbenzoylguanidine, dihydrochloride]	53 µM
CS(=O)(=O)c1cc(C(=O)N=C(N)N)ccc1NS(=N)(=O)c1ccc(F)cc1 (stereo not shown) [Example 3, 3-Methylsulfonyl-4-(4-fluorobenzenesulfimidamoyl)benzoylguanidine]	2000 µM
CN=S(=O)(NC)c1cc(C(=O)N=C(N)N)ccc1C(C)C (stereo not shown) [Example 4, 2-isopropyl-5-guanidinocarbonylbenzenesulfonic acid N,N'-dimethylimidamide]	6000 µM
